Values of other authors in patent US20110105387A1 (priority 2009, published 2011).
Converted amounts (≈) assume the structure as drawn.

Key:
[1] = literature
[2] = literature; remark: listed apart in the source

Compound	water solubility [1]	time to attain peak concentrations ([2]; after oral dosing)	increase in AUC with a high-fat meal ([2]; high-fat meal, slower rate of absorption)	excreted in urine [2]
CO[C@H]1C[C@@H]2CC[C@@H](C)[C@@](O)(O2)C(=O)C(=O)N2CCCC[C@H]2C(=O)O[C@H]([C@H](C)C[C@@H]2CC[C@@H](OC(=O)C(C)(CO)CO)[C@H](OC)C2)CC(=O)[C@H](C)/C=C(\C)[C@@H](O)[C@@H](OC)C(=O)[C@H](C)C[C@H](C)/C=C/C=C/C=C/1C [CCI-779]	~120 µg/mL (≈ 116 µM)			
CO[C@H]1C[C@@H]2CC[C@@H](C)[C@@](O)(O2)C(=O)C(=O)N2CCCC[C@H]2C(=O)O[C@H]([C@H](C)C[C@@H]2CC[C@@H](O)[C@H](OC)C2)CC(=O)[C@H](C)/C=C(\C)[C@@H](O)[C@@H](OC)C(=O)[C@H](C)C[C@H](C)/C=C/C=C/C=C/1C [rapamycin]		≤ 2 h	35%	< 3%
